In this experiment the target is Cruzipain (Trypanosoma cruzi, UniProt P25779). As to the kind of experiment: Inhibition of epimastigote form of Trypanosoma cruzi Tulahuen 2 cruzain assessed as reduction in 7-amino-4-methylcoumarin release incubated for 20 mins folllowed by Z-FR-AMC substrate addition and measured up to 45 mins by fluorometric assay.

Molecules are shown by their SMILES.

Cruzipain, sequence (P25779 whole entry): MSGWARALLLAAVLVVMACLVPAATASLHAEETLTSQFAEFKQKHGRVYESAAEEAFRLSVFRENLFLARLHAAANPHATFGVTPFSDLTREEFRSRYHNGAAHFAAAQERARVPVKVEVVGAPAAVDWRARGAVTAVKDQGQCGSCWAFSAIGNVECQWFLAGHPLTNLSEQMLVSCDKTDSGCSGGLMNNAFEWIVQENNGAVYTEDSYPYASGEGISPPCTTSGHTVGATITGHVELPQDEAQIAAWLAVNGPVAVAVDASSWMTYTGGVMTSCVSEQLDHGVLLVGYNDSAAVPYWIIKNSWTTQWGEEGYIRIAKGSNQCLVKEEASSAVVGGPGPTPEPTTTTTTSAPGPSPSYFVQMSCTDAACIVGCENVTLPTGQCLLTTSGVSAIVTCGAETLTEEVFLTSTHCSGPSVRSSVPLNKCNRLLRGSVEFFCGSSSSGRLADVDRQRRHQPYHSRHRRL

By IC50 is commonly meant the point on the concentration scale where inhibition reaches its midpoint. As to `NC(=S)N/N=C/c1cccc(Cl)c1`, the IC50 stood at 105 µM.
As for `CC/C(=N\NC(N)=S)c1cccc([N+](=O)[O-])c1`, the figure is 0.753 µM; as for `N/C(S)=N/N=C/c1ccc(Cl)c(Cl)c1`, 0.0816 µM; as for `C/C(=N\NC(N)=S)c1ccc([N+](=O)[O-])cc1`, 7.6 µM.
For the compound `C/C(=N\NC(N)=S)c1cccc(Cl)c1`, the IC50 turned out to be 29.9 µM.
Turning to `C/C(=N\N=C(\N)S)c1ccc(Cl)c(Cl)c1`, the half-maximal inhibitory concentration (IC50) is 0.147 µM.
As for `CC/C(=N\N=C(\N)S)c1cccc(Cl)c1`, the IC50 worked out at 23.2 µM.
As for `CC/C(=N\N=C(\N)S)c1ccc(Cl)c(Cl)c1`, the IC50 is 0.0695 µM.
As for `COc1cccc(/C(C)=N/N=C(/N)S)c1`, the IC50 was determined as 1470 µM.
